A value given as a limit tells only on which side of the number the result lay.

The target in one experiment is Flt-1 (Homo sapiens, UniProt P17948). In words: Kinase assay, Flt-1 (33P-ATP incorporation or luciferase-coupled ATP consumption). The format is biochemical. The following applies: read-out: Flt1 IC50. The procedure: Kinase assays were performed by measurement of incorporation of γ-^33P ATP into immobilized myelin basic protein (MBP). […] Plates were washed 3× with 100 μl TBS. […] Compound dilutions were performed in DMSO and added to assay wells to a final DMSO concentration of 1%. Each data point was measured in duplicate, and at least two duplicate assays were performed for each individual compound determination. Enzyme was added to final concentrations of 10 nM or 20 nM, for example. A mixture of unlabeled ATP and γ-^33P ATP was added to start the reaction (2×10^6 cpm of γ-^33P ATP per well (3000 Ci/mmole) and either 10 μM or 30 μM unlabeled ATP, typically. The reactions were carried out for 1 hour at room temperature with shaking. Plates were washed 7× with TBS, followed by the addition of 50 μl/well scintillation fluid (Wallac). Plates were read using a Wallac Trilux counter. This is only one format of such assays, various other formats are possible, as known to one of ordinary skill in the art.
Tyrosine kinase activity is determined by 1) measurement of kinase-dependent ATP consumption by in the presence of a generic substrate such as, polyglutamic acid, tyrosine, 4:1 (pEY), by luciferase/luciferin-mediated chemiluminescence or; 2) incorporation of radioactive phosphate derived from ^33P-ATP into a generic substrate which has been adsorbed onto the well surface of polystyrene microtiter plates. Phosphorylated substrate products are quantified by scintillation spectrometry.
(§1) Kinase activity and compound inhibition are investigated using one or more assay formats. The ATP concentrations for each assay are selected to be close to the Michaelis-Menten constant (KM) for each individual kinase. Dose-response experiments are performed at 10 different inhibitor concentrations in a 384-well plate format. […] Exemplary kinase assays are described below. KDR Assay

A further experiment concerns the target FGFR1 (Homo sapiens, UniProt P11362). The experiment is described as follows: Kinase assay, FGFR1 (33P-ATP incorporation or luciferase-coupled ATP consumption). The format is biochemical. A digest of the protocol: (§2)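 Two formats used: luciferase/luciferin chemiluminescence of ATP consumed with pEY, or radiometric 33P transfer to plate-bound MBP or pEY read by scintillation.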

Another experiment addresses EGFR (Homo sapiens, UniProt P00533). The experiment is described as follows: Kinase assay, EGFR (33P-ATP incorporation or luciferase-coupled ATP consumption). The format is biochemical. A digest of the protocol:
as §2

For a further experiment, the target named is PDGFR alpha (Homo sapiens, UniProt P16234). In words: Kinase assay, PDGFR alpha (33P-ATP incorporation or luciferase-coupled ATP consumption). The format is biochemical. The following applies: read-out: PDGF-R-A IC50. A digest of the protocol:
as §2

Experiment [1] has as its target T1, KDR (baculovirus expressed human KDR kinase domain D807-V1356) (Homo sapiens, UniProt P35968).
T1 construct: human KDR kinase domain D807-V1356; host or cells: baculovirus expression system
In words: biochemical. The method, boiled down:
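Luciferase-coupled chemiluminescence quantifies ATP left after a 4 h room-temperature reaction of KDR kinase domain (D807–V1356, baculovirus-expressed human). ATP set close to KM; inhibitors tested at 10 concentrations.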

The target of a further experiment is Fyn (Homo sapiens, UniProt P06241). In words: Kinase assay, Fyn. The format is biochemical. The procedure: as §1
Chain of Fyn (P06241 whole entry, species assumed): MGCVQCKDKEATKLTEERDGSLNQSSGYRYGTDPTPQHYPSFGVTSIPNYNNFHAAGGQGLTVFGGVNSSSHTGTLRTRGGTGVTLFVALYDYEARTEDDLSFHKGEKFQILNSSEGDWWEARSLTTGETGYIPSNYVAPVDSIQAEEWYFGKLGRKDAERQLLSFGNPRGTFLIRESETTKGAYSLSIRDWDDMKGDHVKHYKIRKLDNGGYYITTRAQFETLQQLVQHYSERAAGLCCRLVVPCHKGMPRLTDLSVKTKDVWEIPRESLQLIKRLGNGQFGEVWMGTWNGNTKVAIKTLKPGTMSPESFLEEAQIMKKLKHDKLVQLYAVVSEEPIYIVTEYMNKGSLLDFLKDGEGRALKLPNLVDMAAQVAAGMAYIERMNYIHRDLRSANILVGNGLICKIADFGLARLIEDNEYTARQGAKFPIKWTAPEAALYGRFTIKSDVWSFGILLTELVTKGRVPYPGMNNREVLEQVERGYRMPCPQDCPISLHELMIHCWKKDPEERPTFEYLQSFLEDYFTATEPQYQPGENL
A further experiment has as its target IRK (Homo sapiens, UniProt P06213). In words: Kinase assay, IRK. The format is biochemical. The method, then:
as §1

In the next experiment the target is EphA2 (Homo sapiens, UniProt P29317). The experiment is described as follows: Kinase assay, EphA2 (33P-ATP incorporation or luciferase-coupled ATP consumption). The format is biochemical. A digest of the protocol:
as §2

Chain of EGFR (P00533 25-1210, species assumed): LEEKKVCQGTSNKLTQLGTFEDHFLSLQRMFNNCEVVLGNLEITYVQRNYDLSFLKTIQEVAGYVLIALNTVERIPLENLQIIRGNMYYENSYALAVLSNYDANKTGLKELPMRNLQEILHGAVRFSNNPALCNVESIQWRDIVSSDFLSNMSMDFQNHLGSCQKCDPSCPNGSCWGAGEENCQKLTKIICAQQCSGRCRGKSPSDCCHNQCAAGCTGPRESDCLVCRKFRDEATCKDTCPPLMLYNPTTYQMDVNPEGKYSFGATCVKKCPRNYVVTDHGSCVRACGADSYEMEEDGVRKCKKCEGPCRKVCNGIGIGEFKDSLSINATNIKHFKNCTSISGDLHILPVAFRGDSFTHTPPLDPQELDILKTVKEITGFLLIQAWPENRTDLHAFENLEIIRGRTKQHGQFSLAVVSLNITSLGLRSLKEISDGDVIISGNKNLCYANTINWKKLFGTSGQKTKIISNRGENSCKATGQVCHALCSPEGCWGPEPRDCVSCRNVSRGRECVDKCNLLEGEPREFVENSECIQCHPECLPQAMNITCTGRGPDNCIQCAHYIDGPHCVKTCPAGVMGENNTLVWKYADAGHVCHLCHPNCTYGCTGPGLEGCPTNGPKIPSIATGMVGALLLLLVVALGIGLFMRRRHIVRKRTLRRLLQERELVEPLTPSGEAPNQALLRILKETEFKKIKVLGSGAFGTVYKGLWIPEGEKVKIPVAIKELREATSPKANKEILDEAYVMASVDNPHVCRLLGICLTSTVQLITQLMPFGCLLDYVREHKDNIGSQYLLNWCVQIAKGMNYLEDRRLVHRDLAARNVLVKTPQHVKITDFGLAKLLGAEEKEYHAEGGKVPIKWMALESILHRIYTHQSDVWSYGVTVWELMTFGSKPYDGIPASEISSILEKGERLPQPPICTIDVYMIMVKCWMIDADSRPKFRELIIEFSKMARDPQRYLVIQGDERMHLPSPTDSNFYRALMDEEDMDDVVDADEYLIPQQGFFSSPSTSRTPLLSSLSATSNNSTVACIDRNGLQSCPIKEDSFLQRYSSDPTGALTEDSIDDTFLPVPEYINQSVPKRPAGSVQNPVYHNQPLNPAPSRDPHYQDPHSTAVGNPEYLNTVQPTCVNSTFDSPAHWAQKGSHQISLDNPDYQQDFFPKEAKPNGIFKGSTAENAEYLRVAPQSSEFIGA
Chain of PDGFR alpha (P16234 24-1089): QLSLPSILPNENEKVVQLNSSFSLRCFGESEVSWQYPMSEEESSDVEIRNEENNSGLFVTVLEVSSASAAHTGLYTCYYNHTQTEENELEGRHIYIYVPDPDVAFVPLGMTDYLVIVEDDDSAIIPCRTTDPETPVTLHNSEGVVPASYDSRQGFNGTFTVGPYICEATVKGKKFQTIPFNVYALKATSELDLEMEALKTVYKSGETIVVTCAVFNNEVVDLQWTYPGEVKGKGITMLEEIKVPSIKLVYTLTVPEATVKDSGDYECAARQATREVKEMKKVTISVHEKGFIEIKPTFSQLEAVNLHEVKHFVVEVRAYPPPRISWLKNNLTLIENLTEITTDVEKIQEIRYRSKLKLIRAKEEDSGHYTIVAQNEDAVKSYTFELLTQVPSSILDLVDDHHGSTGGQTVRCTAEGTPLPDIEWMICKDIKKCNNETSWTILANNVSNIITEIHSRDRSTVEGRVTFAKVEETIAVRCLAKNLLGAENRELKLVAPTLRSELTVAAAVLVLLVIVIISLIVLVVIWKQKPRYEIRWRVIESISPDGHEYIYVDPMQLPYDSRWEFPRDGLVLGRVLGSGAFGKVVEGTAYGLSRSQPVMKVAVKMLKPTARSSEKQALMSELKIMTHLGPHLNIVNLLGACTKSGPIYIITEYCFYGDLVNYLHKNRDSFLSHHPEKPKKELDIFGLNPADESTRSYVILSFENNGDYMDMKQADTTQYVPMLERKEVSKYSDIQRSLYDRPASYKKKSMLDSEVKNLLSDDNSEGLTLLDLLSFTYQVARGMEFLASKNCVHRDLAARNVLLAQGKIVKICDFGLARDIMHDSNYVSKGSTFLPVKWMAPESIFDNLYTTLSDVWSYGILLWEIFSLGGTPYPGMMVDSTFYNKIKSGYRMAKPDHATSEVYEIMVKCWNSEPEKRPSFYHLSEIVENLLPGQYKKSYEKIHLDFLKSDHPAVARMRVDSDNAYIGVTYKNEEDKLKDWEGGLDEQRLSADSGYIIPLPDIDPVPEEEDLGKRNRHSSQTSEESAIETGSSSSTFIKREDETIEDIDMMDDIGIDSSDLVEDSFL
Chain of EphA2 (P29317 24-976, species assumed): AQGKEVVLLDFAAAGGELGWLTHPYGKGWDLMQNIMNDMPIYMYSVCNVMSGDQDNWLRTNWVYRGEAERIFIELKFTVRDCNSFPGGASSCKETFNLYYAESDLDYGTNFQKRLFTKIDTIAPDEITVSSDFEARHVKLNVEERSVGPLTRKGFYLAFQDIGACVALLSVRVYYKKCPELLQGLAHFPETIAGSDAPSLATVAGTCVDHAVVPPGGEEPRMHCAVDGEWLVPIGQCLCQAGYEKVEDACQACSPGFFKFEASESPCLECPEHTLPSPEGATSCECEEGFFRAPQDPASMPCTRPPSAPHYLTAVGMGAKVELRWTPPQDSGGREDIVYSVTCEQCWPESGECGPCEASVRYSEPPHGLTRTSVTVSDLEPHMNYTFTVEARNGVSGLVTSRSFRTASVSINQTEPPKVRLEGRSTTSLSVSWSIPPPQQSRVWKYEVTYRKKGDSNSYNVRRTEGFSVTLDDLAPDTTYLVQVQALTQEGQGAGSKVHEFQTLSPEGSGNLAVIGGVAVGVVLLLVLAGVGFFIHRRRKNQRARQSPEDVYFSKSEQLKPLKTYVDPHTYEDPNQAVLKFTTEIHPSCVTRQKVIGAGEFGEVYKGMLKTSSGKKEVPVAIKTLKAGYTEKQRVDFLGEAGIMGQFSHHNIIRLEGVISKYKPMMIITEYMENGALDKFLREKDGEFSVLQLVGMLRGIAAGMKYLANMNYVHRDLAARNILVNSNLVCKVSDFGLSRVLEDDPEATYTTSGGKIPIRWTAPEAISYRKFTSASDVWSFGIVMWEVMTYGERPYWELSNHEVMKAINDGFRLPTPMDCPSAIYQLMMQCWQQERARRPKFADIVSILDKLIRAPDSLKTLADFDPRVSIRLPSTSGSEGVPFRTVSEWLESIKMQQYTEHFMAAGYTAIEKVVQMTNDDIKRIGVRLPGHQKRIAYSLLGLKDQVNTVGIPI
Chain of IRK (P06213 28-1382): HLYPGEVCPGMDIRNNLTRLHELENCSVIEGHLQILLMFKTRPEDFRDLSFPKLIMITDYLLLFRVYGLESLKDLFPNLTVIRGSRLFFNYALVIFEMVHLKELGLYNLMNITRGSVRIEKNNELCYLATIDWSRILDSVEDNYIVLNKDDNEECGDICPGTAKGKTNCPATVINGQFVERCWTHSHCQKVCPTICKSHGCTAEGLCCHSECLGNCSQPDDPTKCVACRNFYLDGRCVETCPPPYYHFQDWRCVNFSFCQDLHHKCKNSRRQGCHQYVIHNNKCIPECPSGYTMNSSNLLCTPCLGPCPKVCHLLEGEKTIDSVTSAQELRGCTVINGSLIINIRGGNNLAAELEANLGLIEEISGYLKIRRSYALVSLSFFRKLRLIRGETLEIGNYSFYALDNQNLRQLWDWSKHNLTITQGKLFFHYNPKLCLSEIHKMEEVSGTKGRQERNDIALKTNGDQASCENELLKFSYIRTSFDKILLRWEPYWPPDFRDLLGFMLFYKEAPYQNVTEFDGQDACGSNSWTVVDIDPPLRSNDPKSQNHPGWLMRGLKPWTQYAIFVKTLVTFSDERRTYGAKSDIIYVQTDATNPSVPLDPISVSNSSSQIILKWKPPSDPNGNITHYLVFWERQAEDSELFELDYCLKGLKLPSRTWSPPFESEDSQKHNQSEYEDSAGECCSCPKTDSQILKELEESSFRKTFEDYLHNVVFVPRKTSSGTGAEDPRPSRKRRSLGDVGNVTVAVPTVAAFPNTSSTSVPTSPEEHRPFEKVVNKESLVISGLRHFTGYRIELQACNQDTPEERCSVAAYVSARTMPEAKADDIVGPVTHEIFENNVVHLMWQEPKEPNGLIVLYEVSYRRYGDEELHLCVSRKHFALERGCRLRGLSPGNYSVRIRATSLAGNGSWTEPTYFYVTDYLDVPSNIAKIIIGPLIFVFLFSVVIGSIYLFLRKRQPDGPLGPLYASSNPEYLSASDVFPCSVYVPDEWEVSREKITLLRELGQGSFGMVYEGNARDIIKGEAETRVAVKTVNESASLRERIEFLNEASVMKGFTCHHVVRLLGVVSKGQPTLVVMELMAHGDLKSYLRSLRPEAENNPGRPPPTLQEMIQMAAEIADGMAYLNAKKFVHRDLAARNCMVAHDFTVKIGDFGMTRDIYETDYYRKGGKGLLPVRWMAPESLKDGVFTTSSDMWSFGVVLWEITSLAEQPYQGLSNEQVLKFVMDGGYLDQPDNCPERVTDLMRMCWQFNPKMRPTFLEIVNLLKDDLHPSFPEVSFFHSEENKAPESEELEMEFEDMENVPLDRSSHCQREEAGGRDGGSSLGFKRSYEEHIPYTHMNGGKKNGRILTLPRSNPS

`CCN1CCC(Nc2ccc3c(c2)/C(=C(\c2cccc(Cl)c2)c2nc4ccccc4[nH]2)C(=O)N3)CC1` [Entry 27, (3Z)-3-[1H-benzimidazol-2-yl(3-chlorophenyl)methylidene]-5-[(1-ethylpiperidin-4-yl)amino]-1,3-dihydro-2H-indol-2-one]: the IC50 (as a rule, the concentration that inhibits the measured activity by half) at Flt-1 is below 50 nM; against FGFR1, below 50 nM; at EGFR, 50 to 500 nM; on PDGFR alpha, below 50 nM; in experiment [1], below 50 nM; against Fyn, below 50 nM. Also, the IC50 against IRK and against EphA2 was 50 to 500 nM throughout.
Regarding `CCN1CCC(Nc2ccc3c(c2)/C(=C(\c2ccccc2)c2nc(CCN4C(=O)c5ccccc5C4=O)c[nH]2)C(=O)N3)CC1` [Entry 28, 2-(2-{2-[(Z)-{5-[(1-ethylpiperidin-4-yl)amino]-2-oxo-1,2-dihydro-3H-indol-3-ylidene}(phenyl)methyl]-1H-imidazol-4-yl}ethyl)-1H-isoindole-1,3(2H)-dione], the IC50 is 50 to 500 nM on Flt-1; 500 to 5000 nM on EGFR; below 50 nM on PDGFR alpha; below 50 nM in experiment [1]; 50 to 500 nM against Fyn; 500 to 5000 nM against IRK. The same compound displayed a half-inhibitory concentration (IC50) at EphA2 of 500 to 5000 nM.
Regarding `CCN1CCC(Oc2ccc3c(c2)/C(=C(\c2cccc(OC)c2)c2nc4ccccc4[nH]2)C(=O)N3)CC1` [Entry 32, (3Z)-3-{1H-benzimidazol-2-yl[3-(methyloxy)phenyl]methylidene}-5-[(1-ethylpiperidin-4-yl)oxy]-1,3-dihydro-2H-indol-2-one], the IC50 is 50 to 500 nM on Flt-1; 500 to 5000 nM against EGFR; below 50 nM on PDGFR alpha; below 50 nM in experiment [1]; below 50 nM against Fyn; 500 to 5000 nM on IRK. The same compound showed an IC50 at EphA2 of 500 to 5000 nM.
Turning to `CCN1CCC(Nc2ccc3c(c2)/C(=C(\c2cccc([N+](=O)[O-])c2)c2nc4ccccc4[nH]2)C(=O)N3)CC1` [Entry 19, (3Z)-3-[1H-benzimidazol-2-yl(3-nitrophenyl)methylidene]-5-[(1-ethylpiperidin-4-yl)amino]-1,3-dihydro-2H-indol-2-one], the concentration for half-maximal inhibition (IC50) was 50 to 500 nM at Flt-1; 500 to 5000 nM at EGFR; below 50 nM at PDGFR alpha; below 50 nM in experiment [1]; 50 to 500 nM against Fyn; 500 to 5000 nM on IRK. This compound gave an IC50 against EphA2 of 500 to 5000 nM.
On to `CCN1CCC(Nc2ccc3c(c2)/C(=C(\c2ccc(C)cc2)c2nc4cc(OC)ccc4[nH]2)C(=O)N3)CC1` [Entry 6, (3Z)-5-[(1-ethylpiperidin-4-yl)amino]-3-[[5-(methyloxy)-1 H-benzimidazol-2-yl](4-methylphenyl)methylidene]-1,3-dihydro-2H-indol-2-one], for which the half-maximal inhibitory concentration (IC50) at Flt-1 is 50 to 500 nM; against EGFR, 500 to 5000 nM; at PDGFR alpha, below 50 nM; in experiment [1] it was below 50 nM; on Fyn, below 50 nM; against IRK, 500 to 5000 nM. Also, the IC50 against EphA2 fell in the range of 500 to 5000 nM.
For the compound `O=C1Nc2ccc(NC3CC4CCC(C3)N4)cc2/C1=C(\c1ccccc1)c1nc2ccccc2[nH]1` (centres unmarked) [Entry 31, (3Z)-5-(8-azabicyclo[3.2.1]oct-3-ylamino)-3-[1H-benzimidazol-2-yl(phenyl)methylidene]-1,3-dihydro-2H-indol-2-one], the IC50 at Flt-1 is 500 to 5000 nM; against EGFR it was 500 to 5000 nM; on PDGFR alpha it was 50 to 500 nM; in experiment [1], 50 to 500 nM; on Fyn, 50 to 500 nM; at IRK, 500 to 5000 nM. The same compound registered a half-maximal inhibitory concentration (IC50) against EphA2 of 500 to 5000 nM.
In the case of `CCN1CCC(Nc2ccc3c(c2)/C(=C(\c2ccc([N+](=O)[O-])cc2)c2nc4ccccc4[nH]2)C(=O)N3)CC1` [Entry 7, (3Z)-3-(1H-benzimidazol-2-yl(4-nitrophenyl)methylidene]-5-[(1-ethylpiperidin-4-yl)amino]-1,3-dihydro-2H-indol-2-one], the half-maximal inhibitory concentration (IC50) on Flt-1 is 50 to 500 nM; on EGFR it was 500 to 5000 nM; at PDGFR alpha, below 50 nM; in experiment [1], below 50 nM; against Fyn, 50 to 500 nM; against IRK it was above 5000 nM. The half-inhibitory concentration (IC50) against EphA2 was above 5000 nM.
Take `COc1ccc2[nH]c(/C(=C3\C(=O)Nc4ccc(NC5CC(C)(C)NC(C)(C)C5)cc43)c3ccccc3)nc2c1` [Entry 10, (3Z)-3-[[5-(methyloxy)-1H-benzimidazol-2-yl](phenyl)methylidene]-5-[(2,2,6,6-tetramethylpiperidin-4-yl)amino]-1,3-dihydro-2H-indol-2-one]: the IC50 lay in the range of 500 to 5000 nM on Flt-1; 500 to 5000 nM against EGFR; 50 to 500 nM on PDGFR alpha; 500 to 5000 nM in experiment [1]; 500 to 5000 nM against Fyn; 500 to 5000 nM against IRK. Further, the IC50 at EphA2 is 500 to 5000 nM.
As to `COc1ccc2[nH]c(/C(=C3\C(=O)Nc4ccc(NC5CCN(Cc6ccccc6)C5)cc43)c3ccccc3)nc2c1` (centres unmarked) [Entry 1, (3Z)-3-[[5-(methyloxy)-1H-benzimidazol-2-yl](phenyl)methylidene[-5-}[1-(phenylmethyl)pyrrolidin-3-yl]amino}-1,3-dihydro-2H-indol-2-one], the IC50 at Flt-1 is 50 to 500 nM; on EGFR, 500 to 5000 nM; at PDGFR alpha it was 50 to 500 nM; in experiment [1], below 50 nM; against Fyn, 50 to 500 nM; at IRK it was above 5000 nM. The compound further showed an IC50 at EphA2 of 500 to 5000 nM.
On to `CCN1CCC(Nc2ccc3c(c2)/C(=C(\c2ccc(OC)cc2)c2nc4cc(OC)ccc4[nH]2)C(=O)N3)CC1` [Entry 5, (3Z)-5-[(1-ethylpiperidin-4-yl)amino]-3-{[5-(methyloxy)-1H-benzimidazol-2-yl][4-(methyloxy)phenyl]methylidene}-1,3-dihydro-2H-indol-2-one], for which the IC50 on Flt-1 is 50 to 500 nM; against EGFR, 500 to 5000 nM; on PDGFR alpha it was below 50 nM; in experiment [1], below 50 nM; on Fyn, below 50 nM; against IRK, 500 to 5000 nM. The IC50 on EphA2 was above 5000 nM.
For `CCN1CCC(Nc2ccc3c(c2)/C(=C(\c2cccc(N)c2)c2nc4ccccc4[nH]2)C(=O)N3)CC1` [Entry 21, (3Z)-3-[(3-aminophenyl) (1H-benzimidazol-2-yl)methylidene]-5-[(1-ethylpiperidin-4-yl)amino]-1,3-dihydro-2H-indol-2-one], the IC50 at Flt-1 was 50 to 500 nM; against EGFR, 500 to 5000 nM; on PDGFR alpha, below 50 nM; in experiment [1], below 50 nM; against Fyn, 50 to 500 nM; at IRK, 500 to 5000 nM. At EphA2, the 50% inhibitory concentration (IC50) was 500 to 5000 nM.
Consider `CCN1CCC(Nc2ccc3c(c2)/C(=C(\c2ccc(N)cc2)c2nc4ccccc4[nH]2)C(=O)N3)CC1` [Entry 11, (3Z)-3-[(4-aminophenyl)(1H-benzimidazol-2-yl)methylidene]-5-[(1-ethylpiperidin-4-yl)amino]1,3-dihydro-2H-indol-2-one], for which the concentration for half-maximal inhibition (IC50) on Flt-1 is 50 to 500 nM; on EGFR, 50 to 500 nM; on PDGFR alpha it was below 50 nM; in experiment [1], below 50 nM; against Fyn, below 50 nM; at IRK, 500 to 5000 nM. This compound gave an IC50 against EphA2 of 500 to 5000 nM.
`CN(C)CCN1CCC(Nc2ccc3c(c2)/C(=C(\c2ccccc2)c2nc4ccccc4[nH]2)C(=O)N3)CC1` [Entry 29, (3Z)-3-[1H-benzimidazol-2-yl(phenyl)methylidene]-5-({1-[2-(dimethylamino)ethyl]piperidin-4-yl}amino)-1,3-dihydro-2H-indol-2-one]: the IC50 on Flt-1 was 500 to 5000 nM; against EGFR it was 500 to 5000 nM; on PDGFR alpha, 50 to 500 nM; in experiment [1] it was below 50 nM; at Fyn, 50 to 500 nM; against IRK, 500 to 5000 nM. Besides, the IC50 against EphA2 lay within 500 to 5000 nM.

The values are drawn from US7626031B2, “Substituted 3-(diarylmethylene)indolin-2-ones and methods of their use” (Symphony Evolution, Inc., priority 2002, dated 2009).
